Assay results reported in patent US20260234165A1, “MACROCYCLIC COMPOUNDS, PREPARATION METHOD THEREFOR, AND USE THEREOF” (GENFLEET THERAPEUTICS (SHANGHAI) INC., priority 2004, published 2026).
Structures can show the parent of a compound that is named as a salt. Where two headings read alike, the source gives them in different places.

How the values were obtained:
Format in all cases: cell-based, human
[1] = system: AsPC-1 cells (KRAS G12D mutation); assay: 3D cell proliferation assay (CellTiter Glo-3D), AsPC-1; details: medium with 2% FBS, read-out: AsPC-1 AP IC50
How it was run: (§1)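 800 cells/well (NCI-H441, […]; AsPC-1, KRAS G12D), low-serum RPMI-1640 (2% FBS), overnight attach; 3.16-fold serial dilutions added, 0.1% DMSO; 5 d, 37 °C; CellTiter-Glo 3D RLU; IC50, 4-parameter fit.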

[2] = system: p-ERK in NCI-H441 cells (KRAS G12V mutation); assay: Cell p-ERK assay (HTRF) in NCI-H441 cells
How it was run: (§2)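 AsPC-1 (10000/well) or NCI-H441 (20000/well) cells were seeded overnight, then treated 3 h at 37° C. with 3.16-fold compound dilutions (0.1% DMSO final). Lysates were probed 4 h for phospho-ERK T202/Y204 by HTRF; inhibition versus DMSO and blank wells gave IC50 from four-parameter fits.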

[3] = system: NCI-H441 cells; assay: 3D cell proliferation assay (CellTiter Glo-3D), NCI-H441; details: medium with 2% FBS, read-out: H441 AP IC50
How it was run: as §1

[4] = system: p-ERK in AsPC-1 cells (KRAS G12D mutation); assay: Cell p-ERK assay (HTRF) in AsPC-1 cells
How it was run: as §2

[5] = Homo sapiens, ASPC1, 3D cell proliferation (CellTiter Glo-3D)
[6] = Homo sapiens, NCI-H441, 3 h, NCI-H441 cells, 3 h compound incubation, HTRF p-ERK T202/Y204, read-out: H441 p-ERK IC50
[7] = Homo sapiens, NCI-H441, 3D cell proliferation (CellTiter Glo-3D)
[8] = Homo sapiens, ASPC1, 3 h, AsPC-1 cells, 3 h compound incubation, HTRF p-ERK T202/Y204, read-out: AsPC-1 p-ERK IC50
[9] = 3D cell proliferation (CellTiter Glo-3D)
[10] = NCI-H441 cells, 3 h compound incubation, HTRF p-ERK T202/Y204, read-out: H441 p-ERK IC50
[11] = AsPC-1 cells, 3 h compound incubation, HTRF p-ERK T202/Y204, read-out: AsPC-1 p-ERK IC50

Structure (SMILES)	IC50 [1, 5]	IC50 [2, 6]	IC50 [3, 7]	IC50 [4, 8]	IC50 [1, 9]	IC50 [2, 10]	IC50 [3, 9]	IC50 [4, 11]	IC50 ([2]; Homo sapiens, NCI-H441, 3 h, read-out: H441 p-ERK IC50(nM))	IC50 ([3]; Homo sapiens, 3D cell proliferation (CellTiter Glo-3D))	IC50 ([4]; Homo sapiens, ASPC1, 3 h, read-out: AsPC-1 p-ERK IC50(nM))
CCn1c(-c2cc(OCCN3CCC4(CC4)C3)cnc2[C@H](C)OC)c2c3cc(ccc31)-c1csc(n1)C[C@H](NC(=O)[C@H]1[C@H](C)[C@@H]1C)C(=O)N1CCC[C@H](N1)C(=O)OCC1(CC1)C2 [Compound Z415, (1r,2R,3S)—N-((3′S,4′S,Z)-2′-(5-(2-(5-azaspiro[2.4]heptan-5-yl)ethoxy)-2-((S)-1-methoxyethyl)pyridin-3-yl)-1′-ethyl-5′,7′-dioxaspiro[cyclopropane-1,10′-8-oxa-2(4,2)-thiazola-1(5,3)-indola-6(1,3)-pyridazinacycloundecaphan]-4′-yl)-2,3-dimethylcyclopropane-1-carboxamide]	12.6 nM	11.7 nM	7.54 nM	10.1 nM							
CCn1c(-c2cc(OCC3(N4CCS(=O)(=O)CC4)CC3)cnc2[C@H](C)OC)c2c3cc(ccc31)-c1csc(n1)C[C@H](NC(=O)[C@H]1[C@H](C)[C@@H]1C)C(=O)N1CCC[C@H](N1)C(=O)OCC(C)(C)C2 [Compound Z449, (1r,2R,3S)—N-((6^3S,4S,Z)-1^2-(5-((1-(1,1-dioxidothiomorpholino)cyclopropyl)methoxy)-2-((S)-1-methoxyethyl)pyridin-3-yl)-1^1-ethyl-10,10-dimethyl-5,7-dioxo-6^1,6^2,6^3,6^4,6^5,6^6-hexahydro-1^1-hydrogen-8-oxa-2(4,2)-thiazola-1(5,3)-indola-6(1,3)-pyridazinacycloundecaphane-4-yl)-2,3-dimethylcyclopropane-1-carboxamide]					0.45 nM	0.33 nM	0.34 nM	0.21 nM			
CCn1c(-c2cc(CCN3CCS(=O)(=O)CC3)cnc2[C@H](C)OC)c2c3cc(ccc31)-c1csc(n1)C[C@H](NC(=O)[C@H]1[C@H](C)[C@@H]1C)C(=O)N1CCC[C@H](N1)C(=O)OCC(C)(C)C2 [Compound Z485A, (1r,2R,3S)—N-((6^3S,4S,Z)-1^2-(5-(2-(1,1-dioxidothiomorpholino)ethyl)-2-((S)-1-methoxyethyl)pyridin-3-yl)-1-ethyl-10,10-dimethyl-5,7-dioxo-6^1,6^2,6^3,6^4,6^5,6^6-hexahydro-1^1H-8-oxa-2(4,2)-thiazola-1(5,3)-indola-6(1,3)-pyridazinacycloundecaphane-4-yl)-2,3-dimethylcyclopropane-1-carboxamide]					2.4 nM	1.14 nM	1 nM	1.45 nM			
CCn1c(-c2cc(N3CCN(C)CC3)cnc2[C@H](C)OC)c2c3cc(ccc31)-c1csc(n1)C[C@H](Nc1cc(C)cnn1)C(=O)N1CCC[C@H](N1)C(=O)OCC(C)(C)C2 [Compound Z559, (6^3S,4S,Z)-1^1-ethyl-(R3)-1^2-(2-((S)-1-methoxyethyl)-5-(4-methylpiperazin-1-yl)pyridin-3-yl)-10,10-dimethyl-4-((5-methylpyridazin-3-yl)amino)-6^1,6^2,6^3,6^4,6^5,6^6-hexahydro-1^1H-8-oxa-2(4,2)-thiazola-1(5,3)-indola-6(1,3)-pyridazinacycloundecaphane-5,7-dione]	47.5 nM	14.6 nM	17.5 nM	45 nM							
CCn1c(-c2cc(OCCN3CCS(=O)(=O)CC3)cnc2[C@H](C)OC)c2c3cc(ccc31)-c1csc(n1)C[C@H](NC(=O)C(C)C(C)C)C(=O)N1CCC[C@H](N1)C(=O)OCC(C)(C)C2 (stereo partly drawn) [Compound Z607, N-((6^3S,4S,Z)—(R4)-1^2(5-(2-(1,1-dioxidothiomorpholino)ethoxy)-2-((S)-1-methoxyethyl)pyridin-3-yl)-1^1-ethyl-10,10-dimethyl-5,7-dioxo-6^1,6^2,6^3,6^4,6^5,6^6-hexahydro-1^1H-8-oxa-2(4,2)-thiazola-1(5,3)-indola-6(1,3)-pyridazinacycloundecaphane-4-yl)-2,3-dimethylbutanamide]					1.12 nM	0.45 nM	0.36 nM	0.54 nM			
CCn1c(-c2cc(OCC(C)(C)N3CCS(=O)(=O)CC3)cnc2[C@H](C)OC)c2c3cc(ccc31)-c1csc(n1)C[C@H](NC(=O)[C@H]1[C@H](C)[C@@H]1C)C(=O)N1CCC[C@H](N1)C(=O)OCC(C)(C)C2 [Compound Z667A]					2.97 nM	1.6 nM	1.31 nM	2.6 nM			
CCn1c(-c2cc(C#CCN3CCN(C)S(=O)(=O)CC3)cnc2[C@H](C)OC)c2c3cc(ccc31)-c1csc(n1)C[C@H](NC(=O)[C@H]1[C@H](C)[C@@H]1C)C(=O)N1CCC[C@H](N1)C(=O)OCC(C)(C)C2 [Compound Z847, (1r,2R,3S)—N-((6^3S,4S,Z)—1′-ethyl-(2-((S)-1-methoxyethyl)-5-(3-(2-methyl-1,1-dioxido-1,2,5-thiadiazepan-5-yl)prop-1-yn-1-yl)pyridin-3-yl)-10,10-dimethyl-5,7-dioxo-6^1,6^2,6^3,6^4,6^5,6^6-hexahydro-1^1H-8-oxa-2(4,2)-thiazola-1(5,3)-indola-6(1,3)-pyridazinacycloundecaphane-4-yl)-2,3-dimethylcyclopropane-1-carboxamide]	0.13 nM	0.13 nM	0.29 nM	0.11 nM							
CCn1c(-c2cc(C#CCN3CCCOCC3)c[n+]([O-])c2[C@H](C)OC)c2c3cc(ccc31)-c1csc(n1)C[C@H](NC(=O)[C@H]1[C@H](C)[C@@H]1C)C(=O)N1CCC[C@H](N1)C(=O)OCC(C)(C)C2 [Compound Z914, 5-(3-(1,4-oxazepan-4-yl)prop-1-yn-1-yl)-3-((6^3S,4S,Z)-4-((r,2R,3S)-2,3-dimethylcyclopropane-1-carboxamido)-1^1-ethyl-10,10-dimethyl-5,7-dioxo-6^1,6^2,6^3,6^4,6^5,6^6-hexahydro-1^1H-8-oxa-2(4,2)-thiazola-1(5,3)-indola-6(1.3)-pyridazinacycloundecaphane-1^2-yl)-2-((S)-1-methoxyethyl)pyridine-1-oxide]		0.46 nM		0.25 nM	0.58 nM		0.26 nM				
C=C1CN(CC#Cc2cnc([C@H](C)OC)c(-c3c4c5cc(ccc5n3CC)-c3csc(n3)C[C@H](NC(=O)[C@H]3[C@H](C)[C@@H]3C)C(=O)N3CCC[C@H](N3)C(=O)OCC(C)(C)C4)c2)C1 [Compound Z1034, (1 r,2R,3S)—N-((6^3S,4S,Z)-1^1-ethyl-1^2-(2-((S)-1-methoxyethyl)-5-(3-(3-methyleneazetidine-1-yl)prop-1-Sn-1-yl)pyridin-3-yl)-10,10-dimethyl-5,7-dioxo-6^1,6^2,6^3,6^4,6^5,6^6-hexahydro-1^1H-8-oxa-2(4.2)-thiazola-1(5,3)-indola-6(1.3)-pyridazinacycloundecaphane-4-yl)-2,3-dimethylcyclopropane-1-carboxamide]					0.2 nM	0.29 nM	0.28 nM	0.33 nM			
CCn1c(-c2cc(C#CCN3CCC(N=S(C)(C)=O)CC3)cnc2[C@H](C)OC)c2c3cc(ccc31)-c1csc(n1)C[C@H](NC(=O)[C@H]1[C@H](C)[C@@H]1C)C(=O)N1CCC[C@H](N1)C(=O)OCC(C)(C)C2 [Compound Z1045]	0.21 nM	0.19 nM	0.17 nM	0.36 nM							
CCn1c(-c2cc(C#CCN3CC(N=S(C)(C)=O)C3)cnc2[C@H](C)OC)c2c3cc(ccc31)-c1csc(n1)C[C@H](NC(=O)[C@H]1[C@H](C)[C@@H]1C)C(=O)N1CCC[C@H](N1)C(=O)OCC(C)(C)C2 [Compound Z1046, (2R,3S)—N-((6^3S,4S,Z)-1^2-(5-(3-(3-((dimethyl(oxo)-λ^6-sulfaneylidene)amino)azetidin-1-yl)prop-1-yn-1-yl)-2-((S)-1-methoxyethyl)pyridin-3-yl)-1^1-ethyl-10,10-dimethyl-5,7-dioxo-6^1,6^2,6^3,6^4,6^5,6^6-hexahydro-1^1H-8-oxa-2(4,2)-thiazola-1(5,3)-indola-6(1,3)-pyridazinacycloundecaphane-4-yl)-2,3-dimethylcyclopropane-1-carboxamide]	0.63 nM	0.34 nM	0.34 nM	0.71 nM							
CCn1c(-c2cc(C#CCN3CCC(C#N)(c4cccc[n+]4[O-])CC3)cnc2[C@H](C)OC)c2c3cc(ccc31)-c1csc(n1)C[C@H](NC(=O)[C@H]1[C@H](C)[C@@H]1C)C(=O)N1CCC[C@H](N1)C(=O)OCC(C)(C)C2 [Compound Z1054, 2-(4-cyano-1-(3-(5-((6^3S,4S,Z)-4-((2R,3S)-2 3-dimethylcyclopropane-1-carboxamido)-1^1-ethyl-10,10-dimethyl-5,7-dioxo-6^1,6^2,6^3,6^4,6^5,6^6-hexahydro-1^1H-8-oxa-2(4.2)-thiazola-1(5,3)-indola-6(1,3)-pyridazinacycloundecaphane-12-yl)-6-((S)-1-methoxyethyl)pyridin-3-yl)prop-2-yn-1-yl)piperidin-4-yl)pyridine 1-oxide formate]	0.08 nM								0.25 nM	0.15 nM	0.16 nM
